System: 422866-222-R5-J1-PDC spheroids with HUVEC/MSC, viability
Assay: Anticancer human tumor 422866-222-R5-J1-PDC patient-derived pancreatic adenocarcinoma cell line growth inhibition [GQUAD]
Details: for IC50: curve of first compound; for viability, T/C: stronger effect = lower value
In short: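 Viability of tumor cells grown as complex spheroids with endothelial and stromal cells, exposed to drug combinations. Top concentration at or near clinical Cmax (else 10 microM), diluted in half-log increments.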

[1] = second compound 0.0316 µM, first compound 0.0316 µM
[2] = second compound 0.0316 µM, first compound 0.1 µM
[3] = second compound 0.0316 µM, first compound 0.316 µM
[4] = second compound 0.0316 µM, first compound 1 µM
[5] = second compound 0.0316 µM, first compound 3.16 µM
[6] = second compound 0.0316 µM, first compound 10 µM
[7] = second compound 0.1 µM, first compound 0.0316 µM
[8] = second compound 0.1 µM, first compound 0.1 µM
[9] = second compound 0.1 µM, first compound 0.316 µM
[10] = second compound 0.1 µM, first compound 1 µM
[11] = second compound 0.1 µM, first compound 3.16 µM
[12] = second compound 0.1 µM, first compound 10 µM
[13] = second compound 0.316 µM, first compound 0.0316 µM
[14] = second compound 0.316 µM, first compound 0.1 µM
[15] = second compound 0.316 µM, first compound 0.316 µM
[16] = second compound 0.316 µM, first compound 1 µM
[17] = second compound 0.316 µM, first compound 3.16 µM
[18] = second compound 0.316 µM, first compound 10 µM
[19] = second compound 1 µM, first compound 0.0316 µM
[20] = second compound 1 µM, first compound 0.1 µM
[21] = second compound 1 µM, first compound 0.316 µM
[22] = second compound 1 µM, first compound 1 µM
[23] = second compound 1 µM, first compound 3.16 µM
[24] = second compound 1 µM, first compound 10 µM
[25] = second compound 3.16 µM, first compound 0.0316 µM
[26] = second compound 3.16 µM, first compound 0.1 µM
[27] = second compound 3.16 µM, first compound 0.316 µM
[28] = second compound 3.16 µM, first compound 1 µM
[29] = second compound 3.16 µM, first compound 3.16 µM
[30] = second compound 3.16 µM, first compound 10 µM
[31] = second compound 10 µM, first compound 0.0316 µM
[32] = second compound 10 µM, first compound 0.1 µM
[33] = second compound 10 µM, first compound 0.316 µM
[34] = second compound 10 µM, first compound 1 µM
[35] = second compound 10 µM, first compound 3.16 µM
[36] = second compound 10 µM, first compound 10 µM
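Note: spheroids exposed to compounds for seven days before reading.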
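Throughout, for viability, T/C: percent viability relative to DMSO vehicle control taken as 100%.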

SMILES: Cc1cccc(N(C)C(=O)C2C(O)CCN2c2nc(C)cc(C(F)(F)F)c2C#N)c1 (centres undefined) + CN(C)c1ccc(Nc2c3ccc(NC(=O)CCN4CCCC4)cc3nc3cc(NC(=O)CCN4CCCC4)ccc23)cc1
- IC50 (second compound 0.0316 µM): > 10 µM
- IC50 (second compound 0.1 µM): > 10 µM
- IC50 (second compound 0.316 µM): > 10 µM
- IC50 (second compound 1 µM): > 10 µM
- IC50 (second compound 3.16 µM): > 10 µM
- IC50 (second compound 10 µM): > 10 µM
- viability, T/C [1]: 119%
- viability, T/C [2]: 98.6%
- viability, T/C [3]: 104%
- viability, T/C [4]: 88.3%
- viability, T/C [5]: 96.6%
- viability, T/C [6]: 107%
- viability, T/C [7]: 92.1%
- viability, T/C [8]: 81%
- viability, T/C [9]: 105%
- viability, T/C [10]: 80.1%
- viability, T/C [11]: 102%
- viability, T/C [12]: 99.5%
- viability, T/C [13]: 97.8%
- viability, T/C [14]: 69.4%
- viability, T/C [15]: 80.6%
- viability, T/C [16]: 86.2%
- viability, T/C [17]: 103%
- viability, T/C [18]: 111%
- viability, T/C [19]: 84.4%
- viability, T/C [20]: 86.1%
- viability, T/C [21]: 80.7%
- viability, T/C [22]: 91.7%
- viability, T/C [23]: 101%
- viability, T/C [24]: 93.2%
- viability, T/C [25]: 77.9%
- viability, T/C [26]: 70.4%
- viability, T/C [27]: 79.7%
- viability, T/C [28]: 85.6%
- viability, T/C [29]: 88.8%
- viability, T/C [30]: 93.6%
- viability, T/C [31]: 72.6%
- viability, T/C [32]: 90.5%
- viability, T/C [33]: 98.3%
- viability, T/C [34]: 82.4%
- viability, T/C [35]: 82.4%
- viability, T/C [36]: 85%

SMILES: Nc1ccn(C2OC(CO)C(O)C2(F)F)c(=O)n1 (centres undefined) + CN(C)c1ccc(Nc2c3ccc(NC(=O)CCN4CCCC4)cc3nc3cc(NC(=O)CCN4CCCC4)ccc23)cc1
- IC50 (second compound 0.0316 µM): 3.23 µM
- IC50 (second compound 0.1 µM): 0.869 µM
- IC50 (second compound 0.316 µM): 1.08 µM
- IC50 (second compound 1 µM): 0.451 µM
- IC50 (second compound 3.16 µM): 0.277 µM
- IC50 (second compound 10 µM): > 10 µM
- viability, T/C [1]: 89.5%
- viability, T/C [2]: 71.6%
- viability, T/C [3]: 74.6%
- viability, T/C [4]: 54.4%
- viability, T/C [5]: 52.5%
- viability, T/C [6]: 41.5%
- viability, T/C [7]: 104%
- viability, T/C [8]: 70.8%
- viability, T/C [9]: 66.5%
- viability, T/C [10]: 43.5%
- viability, T/C [11]: 44.6%
- viability, T/C [12]: 39.2%
- viability, T/C [13]: 91.4%
- viability, T/C [14]: 68.4%
- viability, T/C [15]: 54.4%
- viability, T/C [16]: 57.1%
- viability, T/C [17]: 48.2%
- viability, T/C [18]: 36.5%
- viability, T/C [19]: 72.7%
- viability, T/C [20]: 59%
- viability, T/C [21]: 57.6%
- viability, T/C [22]: 39.6%
- viability, T/C [23]: 41.3%
- viability, T/C [24]: 34.7%
- viability, T/C [25]: 75.6%
- viability, T/C [26]: 67.6%
- viability, T/C [27]: 48.7%
- viability, T/C [28]: 35%
- viability, T/C [29]: 39.4%
- viability, T/C [30]: 39.2%
- viability, T/C [31]: 73.6%
- viability, T/C [32]: 57.9%
- viability, T/C [33]: 57.9%
- viability, T/C [34]: 50.9%
- viability, T/C [35]: 51.8%
- viability, T/C [36]: 49%

From PubChem BioAssay AID2060511 (Molecular Pharmacology Branch, DTP, NCI, 2025)
